Here are results for five compounds from patent EP1222194B1, “7-ACYLAMINO-3-HETEROARYLTHIO-3-CEPHEM CARBOXYLIC ACID ANTIBIOTICS AND PRODRUGS THEREOF” (priority 1999, dated 2001).

Common to all, as to assay: Broth microdilution MIC (NCCLS)
Common to all, as to type: cell-based

Assay [1] relates to S. aureus Spain #356 (Meth^R). To be noted: Staphylococcus aureus, Mueller-Hinton Broth, 24 h at 35 °C. Summed up:
(§1)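 Each strain meets 2-fold serially diluted compound in Mueller-Hinton broth at a final density of 5 x 10^5 CFU/mL from early-log-phase culture. After 24 h incubation at 35 °C, the minimum concentration showing no growth is recorded as MIC.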

In assay [2] the test system is E. faecalis VanB (Van^R). To be noted: Enterococcus faecalis, Mueller-Hinton Broth, 24 h at 35 °C. Summed up:
as §1

The test system of assay [3] is S. aureus ATCC 33593 (Meth^R). To be noted: Staphylococcus aureus, ATCC33593, Mueller-Hinton Broth, 24 h at 35 °C. Summed up: as §1
The test system of assay [4] is E. faecium ATCC 35667. As to conditions: Enterococcus faecium, ATCC35667, Mueller-Hinton Broth, 24 h at 35 °C. Summed up:
as §1

Assay [5] concerns S. aureus 76 (Meth^R)(lac^+). To be noted: Staphylococcus aureus, Mueller-Hinton Broth, 24 h at 35 °C. Summed up: as §1
The test system of assay [6] is S. haemolyticus 05 (Meth^R). To be noted: Staphylococcus haemolyticus, Mueller-Hinton Broth, 24 h at 35 °C. Summed up: as §1
The test system of assay [7] is E. faecium VanA (Van^R). As to conditions: Enterococcus faecium, Mueller-Hinton Broth, 24 h at 35 °C. Summed up:
as §1

The test system of assay [8] is E. coli ATCC25992. To be noted: Escherichia coli, Mueller-Hinton Broth, 24 h at 35 °C. Summed up:
as §1

Assay [9] relates to E. faecium A491 (Amp^R). To be noted: Enterococcus faecium, Mueller-Hinton Broth, 24 h at 35 °C. Summed up:
as §1

Assay [10] has as its system S. aureus ATCC 13709 (Meth^S). As to conditions: Staphylococcus aureus, ATCC13709, Mueller-Hinton Broth, 24 h at 35 °C. An outline of the steps: as §1
For assay [11], the system named is S. aureus ATCC 29213. To be noted: Staphylococcus aureus, ATCC29213, Mueller-Hinton Broth, 24 h at 35 °C. An outline of the steps:
as §1

In brackets after ≈: the same amount, converted by molar mass.

Consider `NCCSCc1ncccc1SC1=C(C(=O)O)N2C(=O)[C@@H](NC(=O)/C(=N\O)c3nsc(N)n3)[C@H]2SC1` [Cmpd 2, (7R)-7-[(Z)-2-(5-amino-1,2,4-thiadiazol-3-yl)-2-(hydroxyimino)acetamido]-3-[2-(2-aminoethylthiomethyl)pyrid-3-ylthio]-3-cephem-4-carboxylic acid], for which the MIC in [1] was 1 µg/mL (≈ 1.76 µM); in [2], 0.5 µg/mL (≈ 0.879 µM); in [3], 1 µg/mL (≈ 1.76 µM); in assay [4], 1 µg/mL (≈ 1.76 µM); in assay [5], 1 µg/mL (≈ 1.76 µM); in assay [6] it was 2 µg/mL (≈ 3.52 µM). The minimum inhibitory concentration (MIC) in assay [7] is 2 µg/mL (≈ 3.52 µM); in assay [8] it was 1 µg/mL (≈ 1.76 µM); in [9] it was greater than 32 µg/mL.

On to `NCCSCc1ccncc1SC1=C(C(=O)O)N2C(=O)[C@@H](NC(=O)/C(=N\O)c3nc(N)sc3Cl)[C@H]2SC1` [Cmpd 3, (7R)-7-[(Z)-2-(2-amino-5-chlorothiazol-4-yl)-2-(hydroxyimino)acetamido]-3-[4-(2-aminoethylthiomethyl)pyrid-3-ylthio]-3-cephem-4-carboxylic acid], for which the MIC in assay [1] was 1 µg/mL (≈ 1.66 µM); in assay [2], 0.5 µg/mL (≈ 0.83 µM); in [10], 0.13 µg/mL (≈ 0.216 µM); in assay [3], 1 µg/mL (≈ 1.66 µM); in [4] it was 1 µg/mL (≈ 1.66 µM); in assay [5], 1 µg/mL (≈ 1.66 µM). Besides, the minimal inhibitory concentration (MIC) in [6] amounted to 2 µg/mL (≈ 3.32 µM); in assay [7], 2 µg/mL (≈ 3.32 µM); in assay [8], 4 µg/mL (≈ 6.64 µM); in assay [9], 32 µg/mL (≈ 53.1 µM); in [11], 0.13 µg/mL (≈ 0.216 µM).

In the case of `N=C(N)NCCSCc1ncccc1SC1=C(C(=O)O)N2C(=O)[C@@H](NC(=O)/C(=N\O)c3nsc(N)n3)[C@H]2SC1` [Cmpd 2-R, (7R)-7-[(Z)-2-(5-amino-1,2,4-thiadiazol-3-yl)-2-(hydroxyimino)acetamido]-3-[2-(2-guanidinoethylthiomethyl)pyrid-3-ylthio]-3-cephem-4-carboxylic acid], the MIC is 1 µg/mL (≈ 1.64 µM) in assay [1]; 0.13 µg/mL (≈ 0.213 µM) in assay [10]; 1 µg/mL (≈ 1.64 µM) in assay [3]; 0.5 µg/mL (≈ 0.819 µM) in [4]; 1 µg/mL (≈ 1.64 µM) in [5]; 2 µg/mL (≈ 3.27 µM) in assay [6]. The minimal inhibitory concentration (MIC) worked out at 1 µg/mL (≈ 1.64 µM) in assay [7], 1 µg/mL (≈ 1.64 µM) in assay [8], 32 µg/mL (≈ 52.4 µM) in assay [9] and 0.13 µg/mL (≈ 0.213 µM) in assay [11].

Consider `NCCSCc1ncccc1SC1=C(C(=O)O)N2C(=O)[C@@H](NC(=O)/C(=N\O)c3nc(N)sc3Cl)[C@H]2SC1` [Cmpd 1, (7R)-7-[(Z)-2-(2-amino-5-chlorothiazol-4-yl)-2-(hydroxyimino)acetamido]-3-[2-(2-aminoethylthiomethyl)pyrid-3-ylthio]-3-cephem-4-carboxylic acid], for which the MIC in assay [1] stood at 1 µg/mL (≈ 1.66 µM); in [2] it was 0.13 µg/mL (≈ 0.216 µM); in assay [10], 0.13 µg/mL (≈ 0.216 µM); in [3] it was 1 µg/mL (≈ 1.66 µM); in [4], 0.5 µg/mL (≈ 0.83 µM); in assay [5] it was 1 µg/mL (≈ 1.66 µM). In addition, the MIC in assay [6] is 1 µg/mL (≈ 1.66 µM); in assay [7], 1 µg/mL (≈ 1.66 µM); in assay [8] it was 4 µg/mL (≈ 6.64 µM); in assay [9], 8 µg/mL (≈ 13.3 µM).

Turning to `N=C(N)NCCSCc1ncccc1SC1=C(C(=O)O)N2C(=O)[C@@H](NC(=O)/C(=N\O)c3nc(N)sc3Cl)[C@H]2SC1` [Cmpd 2-S, (7R)-7-[(Z)-2-(2-amino-5-chlorothiazol-4-yl)-2-(hydroxyimino)acetamido]-3-[2-(2-guanidinoethylthiomethyl)pyrid-3-ylthio]-3-cephem-4-carboxylic acid], the MIC in assay [1] was found to be 0.5 µg/mL (≈ 0.776 µM); in [2], 0.06 µg/mL (≈ 0.0931 µM); in [10], 0.06 µg/mL (≈ 0.0931 µM); in assay [3], 0.5 µg/mL (≈ 0.776 µM); in assay [4] it was 0.25 µg/mL (≈ 0.388 µM); in [5] it was 0.5 µg/mL (≈ 0.776 µM). Further, the minimum inhibitory concentration (MIC) in [6] was determined as 1 µg/mL (≈ 1.55 µM); in assay [7], 0.5 µg/mL (≈ 0.776 µM); in [8], 4 µg/mL (≈ 6.21 µM); in assay [9], 4 µg/mL (≈ 6.21 µM); in assay [11], 0.13 µg/mL (≈ 0.202 µM).
